# Reference: ChEMBL document CHEMBL5241104, “Reactive metabolites of the anticonvulsant drugs and approaches to minimize the adverse drug reaction” (Eur J Med Chem, 2021)
# Key:
# Mus musculus [1] = test: Anticonvulsant activity in Swiss albino mouse assessed as protection against PTZ induced seizure at ip administration for 30 mins; assay type: functional; details: 0.5 h
# [2] = Toxicity in Swiss albino mouse assessed as median toxicity dose at ip administration; assay type: organism-based; details: in vivo
# Mus musculus [3] = test: Anticonvulsant activity in mouse assessed as inhibition of maximal electroshock induced seizure at 200 mg/kg,po administration for 120 mins; assay type: functional; details: 2 h
# Mus musculus [4] = test: Anticonvulsant activity in mouse assessed as protection against maximal electroshock induced seizure at ip administration for 120 mins; assay type: functional; details: 2 h
# Mus musculus [5] = test: Anticonvulsant activity in mouse assessed as protection against Sc-pTZ induced seizure at ip administration for 5 mins; assay type: functional
# [6] = Protective index, ratio of TD50 for toxicity in CD-1 mouse assessed as median toxicity dose at ip administration by rotorod test to ED50 for anticonvulsant activity in CD-1 mouse assessed as protection against maximal electroshock induced seizure at ip administration; assay type: organism-based; details: in vivo, read-out: Ratio TD50/ED50
# Mus musculus [7] = test: Anticonvulsant activity in CD-1 mouse assessed as protection against maximal electroshock induced seizure at ip administrated for 2 hrs; assay type: functional
# Mus musculus [8] = test: Anticonvulsant activity in CD-1 mouse assessed as protection against Sc-PTZ induced seizure at ip administrated for 2 hrs; assay type: functional
# [9] = Protective index, ratio of TD50 for toxicity in CD-1 mouse assessed as median toxicity dose at ip administration by rotorod test to ED50 for anticonvulsant activity in CD-1 mouse assessed as protection against Sc-PTZ induced seizure at ip administration; assay type: organism-based; details: in vivo, read-out: Ratio TD50/ED50
# [10] = Toxicity in CF-1 mouse assessed as median toxic dose at ip administrated upto 4 hrs; assay type: organism-based; details: in vivo
# Mus musculus [11] = test: Anticonvulsant activity in CF-1 mouse assessed as protection against maximal electroshock induced seizure at ip administrated upto 4 hrs; assay type: functional
# [12] = Protective index, ratio of TD50 for toxicity in CF-1 mouse assessed as median toxicity dose at ip administration upto 4 hrs by rotorod test to ED50 for anticonvulsant activity in CF-1 mouse assessed as protection against maximal electroshock induced seizure at ip administration upto 4 hrs; assay type: organism-based; details: in vivo, read-out: Ratio TD50/ED50
# Rattus norvegicus [13] = test: Anticonvulsant activity in Sprague-Dawley rat assessed as protection against maximal electroshock induced seizure at po administration; assay type: functional
# Mus musculus [14] = test: Anticonvulsant activity in CD-1 mouse assessed as recovery time against maximal electroshock induced seizure at 600 mg/kg,po administrated for 30 mins; assay type: functional; details: 0.5 h
# Mus musculus [15] = test: Anticonvulsant activity in CD-1 mouse assessed as recovery time against maximal electroshock induced seizure at 150 mg/kg,po administrated for 30 mins; assay type: functional; details: 0.5 h
# Mus musculus [16] = test: Anticonvulsant activity in CD-1 mouse assessed as recovery time against maximal electroshock induced seizure at 300 mg/kg,po administrated for 30 mins; assay type: functional; details: 0.5 h
# [17] = Neurotoxicity in CD-1 mouse assessed as reduction in locomotor activity at 600 mg/kg,po administrated for 30 mins; assay type: toxicity, organism-based; set-up: scale not given: the % may be the effect or the level left; details: in vivo, 0.5 h
# Mus musculus [18] = test: Anticonvulsant activity in CD-1 mouse assessed as protection against maximal electroshock induced seizure at po administration for 30 mins; assay type: functional; details: CD-1, 0.5 h
# [19] = Neurotoxicity in CD-1 mouse assessed as lethal dose at po administration for 30 mins; assay type: toxicity, organism-based; details: in vivo
# [20] = Neurotoxicity in CD-1 mouse assessed as reduction in locomotor activity at 300 mg/kg,po administrated for 30 mins; assay type: toxicity, organism-based; set-up: scale not given: the % may be the effect or the level left; details: in vivo, 0.5 h
# Mus musculus [21] = test: Anticonvulsant activity in CD-1 mouse assessed as protection against PTZ induced seizure at po administration for 30 mins; assay type: functional; details: CD-1, 0.5 h
# Rattus norvegicus [22] = test: Anticonvulsant activity in Sprague-Dawley rat assessed as protection against maximal electroshock induced seizure at ip administration for 0.25 hrs; assay type: functional
# [23] = Protective index, ratio of TD50 for toxicity in Sprague-Dawley rat assessed as median toxicity dose at ip administration by rotorod test to ED50 for anticonvulsant activity in Sprague-Dawley rat assessed as protection against maximal electroshock induced seizure at ip administration; assay type: organism-based; details: in vivo, read-out: Ratio TD50/ED50
# Mus musculus [24] = test: Anticonvulsant activity in Albino mouse assessed as protection against Sc-PTZ induced seizure at ip administration for 30 mins; assay type: functional; details: 0.5 h
# Rattus norvegicus [25] = test: Anticonvulsant activity in Sprague-Dawley rat assessed as protection against hippocampal kindling induced seizure at ip administration for 0.25 hrs; assay type: functional
structure (smiles),measurement,setting,value
CCCC(CCC)c1nnc(Nc2ccccc2)s1,ED50,Mus musculus [1],187 mg/kg
same,TD50,[2],419 mg/kg
CC1(C)OCC(CO[S+](N)[O-])O1 (stereo unspecified),inhibition in vivo at 200 mg/kg,Mus musculus [3],≥ 80%
same,ED50,Mus musculus [4],105 mg/kg
CC(C)(C)NC(=O)C(c1cccc(Br)c1)N1Cc2cnnn2-c2cc(Cl)ccc2C1=O (stereo unspecified),Activity,Mus musculus [5],56.94%
CC1(c2ccccc2)CC(=O)N(CCC(=O)N2CCN(c3ccccc3F)CC2)C1=O (stereo unspecified),selectivity ratio,[6],> 3.83
same,ED50,Mus musculus [7],78.3 mg/kg
same,ED50,Mus musculus [8],114 mg/kg
same,selectivity ratio,[9],> 2.63
CC1CC(Nc2ccon2)=CC(=O)C1C(=O)OC(C)(C)C (stereo unspecified),TD50 at 4 h,[10],> 500 mg/kg
same,ED50,Mus musculus [11],28.1 mg/kg
same,selectivity ratio at 4 h,[12],> 17.8
O=C1NC(c2ccccc2)(C2CC2)C(=O)N1CN1CCN(c2ccccc2)CC1 (stereo unspecified),ED50,Rattus norvegicus [13],5.29 mg/kg
CCCC(CCC)C(=O)Nc1ccccc1O,Time,Mus musculus [14],5.75 s
same,Time,Mus musculus [15],93.26 s
same,Time,Mus musculus [16],30.66 s
same,Activity,[17],2.78%
same,ED50,Mus musculus [18],370 mg/kg
same,LD50 at 0.5 h,[19],937 mg/kg
same,Activity,[20],60%
same,ED50,Mus musculus [21],348 mg/kg
CCCC(CCC)C(=O)NCCN(C)C,ED50,Rattus norvegicus [22],38.6 mg/kg
same,selectivity ratio,[23],1.8
O=C1Nc2ccc(Cl)cc2C(c2ccccc2)=NC1/N=N/c1ccc([N+](=O)[O-])cc1 (stereo unspecified),Activity,Mus musculus [24],100%
CCCC(CCC)C(=O)OCCN(C)C,ED50,Rattus norvegicus [22],73 mg/kg
same,ED50,Rattus norvegicus [25],168 mg/kg
